Laboratory results published in patent US8273724B2, “Melanoma antigens and their use in diagnostic and therapeutic methods” (The United States of America, as represented by the …, priority 1994, dated 2012).
Read-outs that look alike come from different tables or passages of the source. Where a SMILES comes first, the peptide text is derived from it.

Legend:
[1] = biological target: HLA-A2.1 (Homo sapiens, UniProt P04439, D140Y/D185E/D98H/E176V/E277Q/G131W/G231S/I119V/I121R/I166T/I218V/L300P/L318F/N151K/N90K/P208A/P217A/Q86G/Q94H/R138H/R169H/T345S); assay: HLA-A2.1 binding assay of modified peptides, inhibition of radiolabeled Hbc 18-27 (Example 5); conditions: for IC50: modified gp100 G9-154 peptides, read-out: Binding affinity to HLA-A2.1
[2] = system: T2 cell lines preincubated with peptide; assay: Recognition of modified peptides by natural epitope (M9-2, G9-154, G9-209, G9-280) reactive T-cells, 51Cr release on peptide-pulsed T2 cells (Example 5); format: cell-based, human
Protocol: Assessment of antigen recognition by CTL. ^51Cr release cytotoxic assays were performed to detect the recognition of peptide and melanoma cells by CTL. To analyze peptide recognition, T2 cell lines were preincubated for 2 h at 37° C. with 1 ug/ml peptide, washed and used as target cells in a ^51Cr release cytotoxic assay. The melanoma lines 624mel was established in our laboratory (See Example 1).
In order to make more immunogenic peptides for induction of anti-melanoma T-cells than natural melanoma epitopes, a variety of peptides in which at least 1 amino acid was changed based on consensus motifs in peptides binding to a specific MHC Class I allele Falk, et al. (1991) Nature 351:290; Kubo et al. (1994) J. Immunol 152:3913; Parker, K. et al. (1992) Journal of Immunology 149:3580; Ruppert, J. et al. (1993) Cell 74:929-937) (Tables 14, 15, 16, and 17). […] By changing amino acid at the 1st, 2nd, 3rd or 9th positions which are important for HLA-A2 binding to the peptide, but less important for recognition by T-cell receptors, artificial peptides which can bind to HLA-A2.1 with higher affinity and still be recognized by natural epitope specific T-cells may be generated.

[3] = system: HLA-A2.1+ T2 cells; conditions: for % specific lysis at E:T = 40:1: peptide 1 ug/ml

Structure (SMILES)	IC50 [1]	Recognition by G9-154 reactive T-cell [2]	binding affinity to HLA-A2.1 compared with the natural epitope [1]	recognition by the original melanoma reactive T-cells [2]	further results
CC(C)C[C@H](NC(=O)[C@@H](N)Cc1c[nH]c2ccccc12)C(=O)N[C@@H](Cc1c[nH]c2ccccc12)C(=O)NCC(=O)N[C@@H](CCC(N)=O)C(=O)N[C@@H](Cc1ccc(O)cc1)C(=O)N[C@@H](Cc1c[nH]c2ccccc12)C(=O)N[C@@H](CCC(N)=O)C(=O)N[C@H](C(=O)O)C(C)C [G9-154-1W2L] (H-WLWGQYWQV-OH; N-terminus and C-terminus assumed)	2.8 nM	−			
CC[C@H](C)[C@H](NC(=O)CNC(=O)[C@H](CC(C)C)NC(=O)[C@H](C)N)C(=O)NCC(=O)N[C@H](C(=O)N[C@@H](CC(C)C)C(=O)N[C@H](C(=O)N[C@H](C(=O)O)C(C)C)[C@@H](C)O)[C@@H](C)CC [M9-2-2L]			higher binding affinity	recognized	Recognition by M9-2 reactive T-cell [2]: + (+, recognized)
CC[C@H](C)[C@H](NC(=O)CNC(=O)[C@@H](NC(=O)[C@H](Cc1ccc(O)cc1)NC(=O)[C@H](C)NC(=O)[C@H](C)N)[C@@H](C)CC)C(=O)N[C@@H](CC(C)C)C(=O)N[C@H](C(=O)N[C@H](C(=O)O)C(C)C)[C@@H](C)O [M9-2-3Y]			higher binding affinity	recognized	Recognition by M9-2 reactive T-cell [2]: + (+, recognized)
CC(C)[C@H](NC(=O)[C@H](CO)NC(=O)[C@H](Cc1ccccc1)NC(=O)[C@@H]1CCCN1C(=O)[C@@H](NC(=O)[C@H](CCC(N)=O)NC(=O)[C@H](CC(=O)O)NC(=O)[C@@H](NC(=O)[C@@H](N)Cc1ccccc1)[C@@H](C)O)C(C)C)C(=O)O [G9-209-1F]			higher binding affinity	recognized	Recognition by G9-209 reactive T-cell [2]: + (+, recognized)
CC(C)[C@H](NC(=O)[C@H](CCC(N)=O)NC(=O)[C@H](Cc1c[nH]c2ccccc12)NC(=O)[C@H](Cc1ccc(O)cc1)NC(=O)[C@H](CCC(N)=O)NC(=O)CNC(=O)[C@H](Cc1ccc(O)cc1)NC(=O)[C@@H](NC(=O)[C@@H](N)CCCCN)[C@@H](C)O)C(=O)O [G9-154-3Y] (H-KTYGQYWQV-OH; N-terminus and C-terminus assumed)	30 nM	+ (+, recognized)			
CC(C)[C@H](NC(=O)[C@H](CCC(N)=O)NC(=O)[C@H](Cc1c[nH]c2ccccc12)NC(=O)[C@H](Cc1ccc(O)cc1)NC(=O)[C@H](CCC(N)=O)NC(=O)CNC(=O)[C@H](Cc1ccccc1)NC(=O)[C@@H](NC(=O)[C@@H](N)CCCCN)[C@@H](C)O)C(=O)O [G9-154-3F] (H-KTFGQYWQV-OH; N-terminus and C-terminus assumed)	21 nM	+ (+, recognized)			
CC(C)[C@H](NC(=O)[C@H](CCC(N)=O)NC(=O)[C@H](Cc1c[nH]c2ccccc12)NC(=O)[C@H](Cc1ccc(O)cc1)NC(=O)[C@H](CCC(N)=O)NC(=O)CNC(=O)[C@H](Cc1c[nH]c2ccccc12)NC(=O)[C@@H](NC(=O)[C@@H](N)Cc1ccc(O)cc1)[C@@H](C)O)C(=O)O [G9-154-1Y]	2.5 nM	−			
CC(C)C[C@H](NC(=O)[C@@H](N)CC(C)C)C(=O)N[C@@H](Cc1c[nH]c2ccccc12)C(=O)NCC(=O)N[C@@H](CCC(N)=O)C(=O)N[C@@H](Cc1ccc(O)cc1)C(=O)N[C@@H](Cc1c[nH]c2ccccc12)C(=O)N[C@@H](CCC(N)=O)C(=O)N[C@H](C(=O)O)C(C)C [G9-154-1L2L] (H-LLWGQYWQV-OH; N-terminus and C-terminus assumed)	1.6 nM	+ (+, recognized)			
CC(C)C[C@H](NC(=O)[C@@H](N)Cc1ccc(O)cc1)C(=O)N[C@@H](CC(=O)O)C(=O)N[C@@H](CCC(N)=O)C(=O)N[C@H](C(=O)N1CCC[C@H]1C(=O)N[C@@H](Cc1ccccc1)C(=O)N[C@@H](CO)C(=O)N[C@H](C(=O)O)C(C)C)C(C)C [G9-209-1Y2L]			higher binding affinity	recognized	Recognition by G9-209 reactive T-cell [2]: + (+, recognized)
CC[C@H](C)[C@H](NC(=O)[C@@H](N)[C@@H](C)O)C(=O)N[C@H](C(=O)N[C@@H](CC(=O)O)C(=O)N[C@@H](CCC(N)=O)C(=O)N[C@H](C(=O)N1CCC[C@H]1C(=O)N[C@@H](Cc1ccccc1)C(=O)N[C@@H](CO)C(=O)N[C@H](C(=O)O)C(C)C)C(C)C)[C@@H](C)O [G10208]					% specific lysis at E:T = 40:1 ([3]; Exp. 1, TIL 620-1): 42%; % specific lysis at E:T = 40:1 ([3]; Exp. 1, TIL 620-2): 36%; % specific lysis at E:T = 40:1 ([3]; Exp. 1, TIL 660-1): 7%; % specific lysis at E:T = 40:1 ([3]; Exp. 1, TIL 1143): 4%; % specific lysis at E:T = 40:1 ([3]; Exp. 1, TIL 1200): 2%; % specific lysis at E:T = 40:1 ([3]; Exp. 1, TIL 1235): 3%; % specific lysis at E:T = 40:1 ([3]; Exp. 2, TIL 620-1): 35%; % specific lysis at E:T = 40:1 ([3]; Exp. 2, TIL 620-2): 80%; % specific lysis at E:T = 40:1 ([3]; Exp. 2, TIL 660-2): 7%; % specific lysis at E:T = 40:1 ([3]; Exp. 2, TIL 1143): 10%; % specific lysis at E:T = 40:1 ([3]; Exp. 2, TIL 1200): 1%; % specific lysis at E:T = 40:1 ([3]; Exp. 2, TIL 1235): 5%; TIL that recognize the peptide ([3]; cytotoxicity assays, T2 preincubated with peptide): recognized only by TIL620
CC(C)C[C@H](NC(=O)[C@@H](N)Cc1c[nH]c2ccccc12)C(=O)N[C@@H](CC(=O)O)C(=O)N[C@@H](CCC(N)=O)C(=O)N[C@H](C(=O)N1CCC[C@H]1C(=O)N[C@@H](Cc1ccccc1)C(=O)N[C@@H](CO)C(=O)N[C@H](C(=O)O)C(C)C)C(C)C [G9-209-1W2L]			higher binding affinity	recognized	Recognition by G9-209 reactive T-cell [2]: + (+, recognized)
CC(C)C[C@H](NC(=O)[C@@H](N)Cc1ccc(O)cc1)C(=O)N[C@@H](Cc1c[nH]c2ccccc12)C(=O)NCC(=O)N[C@@H](CCC(N)=O)C(=O)N[C@@H](Cc1ccc(O)cc1)C(=O)N[C@@H](Cc1c[nH]c2ccccc12)C(=O)N[C@@H](CCC(N)=O)C(=O)N[C@H](C(=O)O)C(C)C [G9-154-1Y2L] (H-YLWGQYWQV-OH; N-terminus and C-terminus assumed)	1.7 nM	−			
CC(C)[C@H](NC(=O)[C@H](CCC(N)=O)NC(=O)[C@H](Cc1c[nH]c2ccccc12)NC(=O)[C@H](Cc1ccc(O)cc1)NC(=O)[C@H](CCC(N)=O)NC(=O)CNC(=O)[C@H](Cc1c[nH]c2ccccc12)NC(=O)[C@@H](NC(=O)[C@@H](N)Cc1ccccc1)[C@@H](C)O)C(=O)O [G9-154-1F] (H-FTWGQYWQV-OH; N-terminus and C-terminus assumed)	1.6 nM	−			
CC[C@H](C)[C@H](NC(=O)CNC(=O)[C@H](C)NC(=O)[C@@H](N)Cc1ccccc1)C(=O)NCC(=O)N[C@H](C(=O)N[C@@H](CC(C)C)C(=O)N[C@H](C(=O)N[C@H](C(=O)O)C(C)C)[C@@H](C)O)[C@@H](C)CC [M9-2-1F]			higher binding affinity	recognized	Recognition by M9-2 reactive T-cell [2]: + (+, recognized)
CC(C)C[C@H](NC(=O)[C@@H](N)CCCCN)C(=O)N[C@@H](Cc1c[nH]c2ccccc12)C(=O)NCC(=O)N[C@@H](CCC(N)=O)C(=O)N[C@@H](Cc1ccc(O)cc1)C(=O)N[C@@H](Cc1c[nH]c2ccccc12)C(=O)N[C@@H](CCC(N)=O)C(=O)N[C@H](C(=O)O)C(C)C [G9-154-2L] (H-KLWGQYWQV-OH; N-terminus and C-terminus assumed)	2 nM	+ (+, recognized)			
CC(C)[C@H](NC(=O)[C@H](CO)NC(=O)[C@H](Cc1ccccc1)NC(=O)[C@@H]1CCCN1C(=O)[C@@H](NC(=O)[C@H](CCC(N)=O)NC(=O)[C@H](CC(=O)O)NC(=O)[C@@H](NC(=O)[C@@H](N)Cc1ccc(O)cc1)[C@@H](C)O)C(C)C)C(=O)O [G9-209-1Y]			higher binding affinity	recognized	Recognition by G9-209 reactive T-cell [2]: + (+, recognized)
CC[C@H](C)[C@H](NC(=O)CNC(=O)[C@@H](NC(=O)[C@@H](N)CCCCN)[C@@H](C)CC)C(=O)NCC(=O)N[C@H](C(=O)N[C@@H](CC(C)C)C(=O)N[C@H](C(=O)N[C@H](C(=O)O)C(C)C)[C@@H](C)O)[C@@H](C)CC [M9-2-1K2I]					Recognition by M9-2 reactive T-cell [2]: −
CC[C@H](C)[C@H](NC(=O)CNC(=O)[C@H](C)NC(=O)[C@@H](N)Cc1ccc(O)cc1)C(=O)NCC(=O)N[C@H](C(=O)N[C@@H](CC(C)C)C(=O)N[C@H](C(=O)N[C@H](C(=O)O)C(C)C)[C@@H](C)O)[C@@H](C)CC [M9-2-1Y]					Recognition by M9-2 reactive T-cell [2]: −
